Consider five compounds from US20040259909A1, “Treatment of fibromyalgia syndrome” (priority 2001, published 2004).

pKi: −log10 of the molar value. Like-named read-outs stand apart in the source and are kept apart here.

The term pKi denotes the negative decadic logarithm of the Ki, by convention in mol/L. Lower therefore signals a high Ki.

Experiment [1] deals with nAChR α7 (Rattus norvegicus, UniProt Q05941). Put plainly: Oocyte functional assay, two-electrode voltage clamp (Test C, FIG. 1). The note with it: in words; currents in oocytes expressing nAChR α7 (FIG. 1). (In two-electrode clamp one electrode senses voltage and the other passes current.)
Protocol: Xenopus oocytes Xenopus laevis frogs (Xenopus I, Kalamazoo, Mich.) were anesthetized using 0.15% tricaine. Oocytes were removed to OR2 solution: (in mM) 82 NaCl, 2.5 KCl, 5 HEPES, 1.5 NaH2PO4, 1 MgCl2, 0.1 EDTA, pH 7.4. The oocytes were defolliculated by incubation in 25 mL OR2 containing 0.2% collagenase 1A (SIGMA) two times for 60 min on a platform vibrating at 1 Hz and stored in Leibovitz's L-15 medium. Oocytes were injected the following day. Leibovitz's L-15 medium contained 50 μg/mL gentomycin, 10 units/mL penicillin, and 10 μg/mL streptomycin.
Preparation and injection of cRNA Rat nAChR α7 was cloned in-house (Luhowskyj). Non-polyadenylated cRNA was prepared from cDNA using mMessage mMachine SP6 (Ambion) according to the manufacturer's instructions.
Recording The external recording solution consisted of (in mM) 90 NaCl, 1 KCl, 1 MgCl2, 1 BaCl2, 5 HEPES, pH 7.4. […] Oocytes were impaled with two electrodes of 1-2 MΩ tip resistance when filled with 3M KCl. Recordings were begun when membrane potential became stable at potentials negative to −20 mV. Membrane potential was clamped at −80 mV unless otherwise noted. ACh, (−) was purchased from SIGMA.
Calculation of current amplitude and curve fitting Current amplitude was measured from baseline to peak. EC50's, maximal effect, and Hill slopes were estimated by fitting the data to the logistic equation using GraphPad Prism (GraphPad Software, Inc. San Diego, Calif.)
Data are fit by the logistic equation.
The nature of experiment [2]: Animal models of memory and cognition. The note with it: in vivo. The source says: In a first embodiment of the invention a suitable α7 agonist is spiro[1-azabicyclo[2.2.2]octane-3,5′-oxazolidine-2′-one (Compound 1, Table 1). […] This compound is disclosed in U.S. Pat. No. 5,902,814 the disclosure of which is incorporated herein in its entirety by reference. This compound is active in animal models of memory and cognition.

For experiment [3], the target named is T1, α7 nAChR subtype (Rattus norvegicus, UniProt Q05941).
T1 construct: Rat hippocampi were homogenized in 20 volumes of cold homogenisation buffer; from tissue; host or cells: rat hippocampus membranes
Put plainly: 125I-α-Bungarotoxin (BTX) binding to rat hippocampal membranes (Test A).
Protocol: Test A—Assay for Affinity at α7 nAChR Subtype
Rat hippocampi were homogenized in 20 volumes of cold homogenisation buffer (HB): (in mM): tris(hydroxymethyl)aminomethane 50; MgCl2 1; NaCl 120; KCl 5: pH 7.4). The homogenate was centrifuged for 5 min at 1000 g, the supernatant was saved and the pellet re-extracted. The pooled supernatants were centrifuged for 20 min at 12000 g, washed, and re-suspended in HB.
(§1) Ki values were estimated using the general Cheng-Prusoff equation (A):
(§2) where a value of n=1 was used whenever nH<1.5 and a value of n−2 was used when nH≧1.5. Samples were assayed in triplicate and were typically ±5%. Ki values were determined using six or more drug concentrations.

The target of experiment [4] is T2, 5-HT3 (Rattus norvegicus, UniProt P35563).
T2 construct: using rat small-bowel muscularis membranes suspended in 50 mM Tris; from tissue; host or cells: rat small-bowel muscularis membranes
T2 sequence (P35563 24-483): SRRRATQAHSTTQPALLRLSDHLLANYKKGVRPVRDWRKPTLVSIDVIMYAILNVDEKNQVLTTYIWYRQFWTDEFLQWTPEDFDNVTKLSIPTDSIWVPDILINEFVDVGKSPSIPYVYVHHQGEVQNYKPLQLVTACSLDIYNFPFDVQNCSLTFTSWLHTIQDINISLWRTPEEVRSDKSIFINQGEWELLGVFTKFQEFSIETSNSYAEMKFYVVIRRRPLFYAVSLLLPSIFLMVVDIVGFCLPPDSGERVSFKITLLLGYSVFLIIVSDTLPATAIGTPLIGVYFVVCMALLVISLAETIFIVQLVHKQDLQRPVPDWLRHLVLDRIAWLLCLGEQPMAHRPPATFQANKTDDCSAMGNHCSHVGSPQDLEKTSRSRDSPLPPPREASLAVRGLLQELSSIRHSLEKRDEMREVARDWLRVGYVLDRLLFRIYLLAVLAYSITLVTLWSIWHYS
Put plainly: [3H]zacopride binding to rat small-bowel muscularis membranes (Test B). The note with it: 0.5 nM [3H]zacopride, read-out: Binding Affinity (Ki/nM) 5HT3.
Protocol: Test B—Assay for Affinity to the 5-HT3 nAChR Subtype
[^3]zacoipride binding. […] Incubation was continued for one hour.
Binding Data Analysis for Tests A and B
as §1, §2

For experiment [5] the following is noted: complex spatial memory task, animal models; cited from earlier work.
The conditions of experiment [6]: fibromyalgia patients treated with tropisetron; cited from earlier work.

nAChR α7, sequence (Q05941 23-502): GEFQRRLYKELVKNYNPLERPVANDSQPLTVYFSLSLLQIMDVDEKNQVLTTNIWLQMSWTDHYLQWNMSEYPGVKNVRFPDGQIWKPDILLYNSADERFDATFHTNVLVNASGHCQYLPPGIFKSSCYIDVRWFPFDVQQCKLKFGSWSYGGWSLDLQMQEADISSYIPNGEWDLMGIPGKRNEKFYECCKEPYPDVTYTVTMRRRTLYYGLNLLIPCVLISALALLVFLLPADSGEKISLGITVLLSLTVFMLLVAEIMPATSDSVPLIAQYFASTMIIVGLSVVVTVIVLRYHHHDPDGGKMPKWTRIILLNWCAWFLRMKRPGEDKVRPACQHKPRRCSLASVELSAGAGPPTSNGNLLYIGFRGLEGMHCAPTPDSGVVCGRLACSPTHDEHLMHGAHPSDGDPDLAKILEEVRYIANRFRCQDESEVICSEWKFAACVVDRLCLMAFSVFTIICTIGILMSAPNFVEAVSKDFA
T1 sequence (Q05941 23-502): as above

In the case of `O=C1NC[C@]2(CN3CCC2CC3)O1` [Compound 1, spiro[1-azabicyclo[2.2.2]octane-3,5′-oxazolidine-2′-one], the “activity at the α7 receptor” value in experiment [1] is listed as “selective α7 agonist”. Moreover, the “activity in animal models of memory and cognition” value in experiment [2] is “active”.

On to `c1cnc2c(c1)C[C@@]1(CN3CCC1CC3)O2` [Compound 2, spiro[1-azabicyclo[2.2.2]octane-3,2′-(3′H)-furo[2,3-b]pyridine]], for which, in experiment [3] ([125I]α-BTX 5 nM, rat hippocampal membranes, read-out: Binding Affinity (Ki/nM) α7), the Ki turned out to be 14 nM.

With `O=C(NC1CN2CCC1CC2)c1cc(-c2ccccc2)cs1` (stereo not shown) [Compound 3, N-(1-azabicyclo[2.2.2]oct-3-yl)(4-phenylthiophene-2-carboxamide)], in experiment [4], the Ki was found to be 20000 nM. In experiment [3], this compound showed a pKi of 8.80.

Turning to `Cc1nccn1CC1CCc2c(c3ccccc3n2C)C1=O` (stereo not shown) [ondansetron], the “activity at the α7 receptor” value in experiment [1] was “lacked activity”. Also, in experiment [5], the “antagonism of spatial navigation impairment” value is recorded as “not”.

Take `CN1[C@@H]2CC[C@H]1C[C@@H](OC(=O)c1c[nH]c3ccccc13)C2` [tropisetron]: the “activity at the α7 receptor” value in experiment [1] is “potent and selective partial agonist”. Further, the “reduction in fibromyalgia symptoms” value in experiment [6] was “statistically significant reduction in their symptoms”. For the same compound, the “antagonism of spatial navigation impairment” value in experiment [5] is given as “antagonize spatial navigation impairment”.
